Results published in patent US6376430B1, “Enhancement of seed yield of soybeans by a substituted benzoyl urea” (Uniroyal Chemical Company, Inc., priority 1997, dated 2002).

Key:
determinate soybeans = experiment: Field applications on determinate soybeans (29 site data base), seed yield; format: in vivo, soybean; details: for determinate soybean yields: Diflubenzuron 0.035 kg/ha, BENLATE 0.56 to 0.84 kg/ha, applied from R2 through R5 growth stages, untreated control 2190 kg/ha; for yield increase over the untreated control: one or two field applications of Diflubenzuron at 0.034 kg ai/ha, 29 sites, determinate soybeans
Excerpt: In this invention, Diflubenzuron is typically sprayed during the period from R2 through R5 for controlling foliar feeding insects. In the States of Mississippi, Florida, Tennessee, Illinois, Arkansas, Louisiana, and Texas results have been compiled where one or two field applications of Diflubenzuron at 0.034 kg ai/ha (0.031 lb ai/acre) were applied to control insects on the determinate soybeans planted. A fungicide, Benomyl, methyl-1-(butylcarbamoyl)-2-benzamidazolecarbamate [CAS 17804-35-2], available as BENLATE™ from DuPont deNemour, Wilmington, Del., was also applied alone or in combination with Diflubenzuron for fungal pathogen control.

indeterminate soybeans = experiment: Field applications on northern indeterminate soybean varieties (25 sites), seed yield, pod counts, seed size; format: in vivo
Excerpt: Diflubenzuron alone gave a 376 kg/ha (5.6 bu/acre) increase over the untreated control; the addition of Benomyl (methyl-1-(butylcarbamoyl)-2-benzamidazolecarbamate) only conferred another 0.5 bushel increase. There were no reported foliar feeding insect infestations of significance in any of the trials.
This is a similar % increase to the increased seed yields found in Table 3. […] Thus Diflubenzuron may be more consistent than TIBA in generating soybean seed yield increases since Diflubenzuron is not visually altering the carbon fixation pool of the plant.

soybean = details: cited from earlier work

Row | Compound | determinate soybean yields (determinate soybeans) | yield increase over the untreated control (determinate soybeans) | visual alteration of the soybean plant canopy (indeterminate soybeans; any research trial) | seed size variation across varieties (indeterminate soybeans; no correlation to application time of Diflubenzuron) | pod counts from plants, higher in relation to the untreated control (indeterminate soybeans; preliminary results, indeterminate soybean trials) | total seed number per plant (soybean; literature (Bauer et al., 1969; Burton and Curley, 1966; Hicks et al., 1967)) | seed yield (soybean; literature, smaller seeds were formed)
1 | CCCCNC(=O)n1c(NC(=O)OC)nc2ccccc21 [Benomyl, methyl-1-(butylcarbamoyl)-2-benzamidazolecarbamate] | 2439 kg/ha | 3.7 bushels/acre | – | – | – | – | –
2 | O=C(NC(=O)c1c(F)cccc1F)Nc1ccc(Cl)cc1 [Diflubenzuron, N-(2,6-difluorobenzoyl)-N′-(4-chlorophenyl)urea] | 2378 kg/ha | 2.8 bushels/acre | has not been noted | ~2% | approximately 16% | – | –
3 | O=C(O)c1cc(I)cc(I)c1I [TIBA, 2,3,5-triiodobenzoic acid] | – | – | – | – | – | increase | no corresponding increase
